Laboratory results taken from patent US6645911B2, “Synergistic herbicidal mixtures” (BASF Aktiengesellschaft, priority 2000, dated 2003).

What was measured:
Format in all cases: in vivo
Stellaria media [1] = test: Postemergence herbicidal greenhouse evaluation, Test Serie A (Table II, picolinafen/carfentrazone-ethyl); conditions: 21 days after treatment
Experimental: (§1) In the following examples, synergism for two-way combinations is determined by the Colby^1 method, i.e. the expected (or predicted) response of the combination is calculated by taking the product of the observed response for each individual component of the combination when applied alone divided by 100 and subtracting this value from the sum of the observed response for each component when applied alone. Synergism of the combination is then determined by comparing the observed response of the combination to the expected (or predicted) response as calculated from the observed responses of each individual component alone. If the observed response of the combination is greater than the expected (or predicted) response then the combination is said to be synergistic and falls within the definition of synergistic effect as previously defined.
(§2) Postemergence Herbicidal Greenhouse Evaluations
(§3) Plant seeds are sown in pots containing a loamy sand soil (0.5 l). The herbicides are applied as single treatments, or in a combination comprising a compound of formula I and a second compound as defined above, after emergence of weeds and crop. The herbicidal performance is assessed as percent damage in comparison to the untreated control plants. The assessment is done 21 days after the treatment. Wheat and barley are treated at the 3-4 leaf stage, the broad-leaf weeds at the 2-4 leaf stage and annual grasses at the 2-3 leaf stage. [formula]
(§4) For the compound of formula I picolinafen is employed.
(§5) The damage caused by the chemicals was assessed with reference to a scale from 0 to 100% in comparison with the untreated control plants. 0 means no damage and 100 means compete destruction of the plants.

Anthimis mixta = test: Postemergence herbicidal evaluation, Test Serie B, in spring wheat (Table III); conditions: weed growth stage 14, test period 14 days
Experimental: as §1, §5
(§6) For the post-emergence treatment, the test plants were first grown to a height of 3 to 20 cm, depending on the growth habit, and only then treated. The herbicides were suspended or emulsified in water as the vehicle and sprayed with the aid of finely distributing nozzles.
(§7) Cinidon-ethyl was formulated as a 20% by weight emulsion concentrate and employed in the spray mixture with addition of that amount of solvent system with which the active ingredient had been applied at the application rates shown in the tables.
(§8) Picolinofen was formulated as a 10% by weight emulsion concentrate and empolyed in the spray mixture with addition of that amount of solvent system with which the active ingredient had been applied at the rates shown in the tables.
(§9) The test period extended over 14 days. During this time, the plants were attended, and their responses to the treatments with active ingredients were recorded (Tables III and IV).

Veronica persicaria = test: as above; conditions: weed growth stage 14, test period 14 days
Experimental: as §1, §5, §6, §7, §8, §9

Stellaria media [2] = test: Postemergence herbicidal evaluation, Test Serie B, in spring barley (Table IV); conditions: weed growth stage 22, test period 14 days
Experimental: as §1, §5
For the post-emergence treatment, the test plants were first grown to a height of 3 to 20 cm, depending on the growth habit, and only then treated. […]
as §9

Alopecuris myosuroides = test: Postemergence herbicidal greenhouse evaluation, Test Serie A (Table I); conditions: 21 days after treatment
Experimental: as §1, §2, §3, §4, §5

Galium aparine = test: as above; conditions: 21 days after treatment
Experimental: as §1, §2, §3, §4, §5

Lamium purpurium = test: as above; conditions: 21 days after treatment
Experimental: as §1, §2, §3, §4, §5

Papaver rhoeas = test: as above; conditions: 21 days after treatment
Experimental: as §1, §2, §3, §4, §5

Stellaria media [3] = test: as above; conditions: 21 days after treatment
Experimental: as §1, §2, §3, §4, §5

[4] = Picolinafen 30 g/ha, Flufenacet 0 g/ha
[5] = Picolinafen 60 g/ha, Flufenacet 0 g/ha
[6] = Picolinafen 15 g/ha, Flufenacet 0 g/ha
[7] = Picolinafen 0 g/ha, Flufenacet 15 g/ha
[8] = Picolinafen 0 g/ha, Flufenacet 30 g/ha
[9] = Picolinafen 0 g/ha, Flufenacet 120 g/ha

For `CCOC(=O)C(Cl)Cc1cc(-n2nc(C)n(C(F)F)c2=O)c(F)cc1Cl` (racemic) [Carfentrazone-ethyl, ethyl (RS)-2-chloro-3-[2-chloro-5-(4-difluoromethyl-4,5-dihydro-3-methyl-5-oxo-1H-1,2,4-triazol-1-yl)-4-fluorophenyl]propionate], the “% Control OBS” value (Stellaria media [1]; Picolinafen 0 g/ha, Carfentrazone-ethyl 3.75 g/ha) was 0%, the “% Control OBS” value (Stellaria media [1]; Picolinafen 0 g/ha, Carfentrazone-ethyl 7.50 g/ha) was 0% and the “% Control OBS” value (Stellaria media [1]; Picolinafen 0 g/ha, Carfentrazone-ethyl 15 g/ha) was 0%. For the same molecule, the “% Control OBS” value (Stellaria media [1]; Picolinafen 0 g/ha, Carfentrazone-ethyl 30 g/ha) was 0%.
For `CCOC(=O)/C(Cl)=C/c1cc(N2C(=O)C3=C(CCCC3)C2=O)ccc1Cl` [Cinidon-ethyl, ethyl (Z)-2-chloro-3-[2-chloro-5-(1,3-dioxo-4,5,6,7-tetrahydroisoindol-2-yl)-phenyl]acrylate], the “% Control OBS” value (Anthimis mixta; Cinidon-ethyl 50 g/ha alone) was 52%, the “% Control OBS” value (Veronica persicaria; Cinidon-ethyl 50 g/ha alone) was 50% and the “% Control OBS” value (Stellaria media [2]; Cinidon-ethyl 50 g/ha alone) was 23%.
In the case of `O=C(Nc1ccc(F)cc1)c1cccc(Oc2cccc(C(F)(F)F)c2)n1` [Picolinafen, N-(4-fluorophenyl)-6-(-3-trifluoromethylphenoxy)-pyrid-2-ylcarboxamide], the “% Control OBS” value (Alopecuris myosuroides; [4]) is reported as 20%, the “% Control OBS” value (Alopecuris myosuroides; [5]) is reported as 43% and the “% Control OBS” value (Alopecuris myosuroides; Picolinafen 120 g/ha, Flufenacet 0 g/ha) is reported as 60%. For the same molecule, the “% Control OBS” value (Galium aparine; [6]) was 78%, the “% Control OBS” value (Lamium purpurium; [4]) was 15% and the “% Control OBS” value (Papaver rhoeas; [4]) was 15%. The “% Control OBS” value (Papaver rhoeas; [5]) was 35%, the “% Control OBS” value (Stellaria media [3]; [6]) was 53% and the “% Control OBS” value (Stellaria media [3]; [4]) was 73%. The “% Control OBS” value (Stellaria media [1]; Picolinafen 30 g/ha, Carfentrazone-ethyl 0 g/ha) was 37%, the “% Control OBS” value (Stellaria media [1]; Picolinafen 60 g/ha, Carfentrazone-ethyl 0 g/ha) was 45% and the “% Control OBS” value (Stellaria media [1]; Picolinafen 120 g/ha, Carfentrazone-ethyl 0 g/ha) was 72%. For the same molecule, the “% Control OBS” value (Anthimis mixta; Picolinafen 50 g/ha alone) was 10%, the “% Control OBS” value (Veronica persicaria; Picolinafen 50 g/ha alone) was 10% and the “% Control OBS” value (Stellaria media [2]; Picolinafen 50 g/ha alone) was 10%.
`CC(C)N(C(=O)COc1nnc(C(F)(F)F)s1)c1ccc(F)cc1` [Flufenacet] was tested, and the “% Control OBS” value (Alopecuris myosuroides; [7]) was 75%, the “% Control OBS” value (Galium aparine; [7]) was 40% and the “% Control OBS” value (Galium aparine; [8]) was 55%. For the same molecule, the “% Control OBS” value (Lamium purpurium; [9]) was 18%, the “% Control OBS” value (Papaver rhoeas; [7]) was 0% and the “% Control OBS” value (Papaver rhoeas; [8]) was 0%. For the same molecule, the “% Control OBS” value (Papaver rhoeas; [9]) was 18%, the “% Control OBS” value (Stellaria media [3]; [8]) was 0% and the “% Control OBS” value (Stellaria media [3]; Picolinafen 0 g/ha, Flufenacet 60 g/ha) was 0%. For the same molecule, the “% Control OBS” value (Stellaria media [3]; [9]) was 0%.
